Test results from patent US20260242320A1, “USE OF CANNABIDIOL DERIVATIVE IN PREPARATION OF MEDICAMENT” (priority 2023, published 2026).

Columns and labels:
[1] = Y-maze test of short-term memory; type: in vivo, mice; settings: CIAC001 20 mg/kg i.p.; THC 10 mg/kg i.p.
Method: Mice were tested for short-term memory using a Y-maze task. Briefly, mice were placed into the Y-maze for 10 min once daily to habituate the apparatus for two consecutive days. After daily habituation, the mice were then treated with CIAC001 (20 mg/kg) or THC (10 mg/kg). On the 3rd day, mice were pretreated with CIAC001 or THC 45 min before the Y-maze test. Next, the “new arm” was blocked, and mice had 5 min to freely explore two arms (the “start arm” and the “old arm”, FIG. 8F). Mice were then removed from the Y-maze and placed into the cages for 2 min. During the test phase, mice were allowed to freely explore all three arms for 2 min, and the time spent in each arm was recorded and analyzed using the Noldus analyzing software. To eliminate olfactory interference, the Y-maze was wiped off with 70% alcohol after each test.

[2] = Respiratory rate determination; type: in vivo, mice; settings: CIAC001 20 mg/kg i.p.; THC 10 mg/kg i.p.
Method: Mice were intraperitoneally injected with 20 mg/kg CIAC001 or 10 mg/kg THC once daily. After 1 h, the mice were anesthetized with isoflurane by a small animal anesthesia machine (R500IE, RWD Life Science Co) on day 2 and day 5. The respiratory rate of mice was recorded three times within 20 s. The weights of mice were recorded every day.

## CCCCCc1cc(O)c2c(c1)OC(C)(C)[C@@H]1CCC(C)=C[C@@H]21 [THC, reference compound]
[1]
  time spent on the new arm (Y maze): spent significantly less time on the new arm
[2]
  respiratory rate: Respiratory depression was found
